Source: patent US20220257639A1, “TREATMENT OF PATIENTS UNDER ANTIPLATELET MEDICATION EXPERIENCING ACUTE BLEEDING COMPLICATIONS DURING/AFTER SURGERY” (priority 2019, published 2022)

B1: PEAR1-EC: PEAR1 extracellular domain protein (Kauskot et al.) (protein, UniProt Q5VY43 21-755, looked up)
extracellular domain: LNPSDPNTCSFWESFTTTTKESHSRPFSLLPSEPCERPWEGPHTCPQPTVVYRTVYRQVVKTDHRQRLQCCHGFYESRGFCVPLCAQECVHGRCVAPNQCQCVPGWRGDDCSSECAPGMWGPQCDKPCSCGNNSSCDPKSGVCSCPSGLQPPNCLQPCTPGYYGPACQFRCQCHGAPCDPQTGACFCPAERTGPSCDVSCSQGTSGFFCPSTHSCQNGGVFQTPQGSCSCPPGWMGTICSLPCPEGFHGPNCSQECRCHNGGLCDRFTGQCRCAPGYTGDRCREECPVGRFGQDCAETCDCAPDARCFPANGACLCEHGFTGDRCTDRLCPDGFYGLSCQAPCTCDREHSLSCHPMNGECSCLPGWAGLHCNESCPQDTHGPGCQEHCLCLHGGVCQATSGLCQCAPGYTGPHCASLCPPDTYGVNCSARCSCENAIACSPIDGECVCKEGWQRGNCSVPCPPGTWGFSCNASCQCAHEAVCSPQTGACTCTPGWHGAHCQLPCPKGQFGEGCASRCDCDHSDGCDPVHGRCQCQAGWMGARCHLSCPEGLWGVNCSNTCTCKNGGTCLPENGNCVCAPGFRGPSCQRSCQPGRYGKRCVPCKCANHSFCHPSNGTCYCLAGWTGPDCSQPCPPGHWGENCAQTCQCHHGGTCHPQDGSCICPLGWTGHHCLEGCPLGTFGANCSQPCQCGPGEKCHPETGACVCPPGHSGAPCRIGIQEPFTVMPTTPVAYNSL
modifications: extracellular domain

How the values were obtained:
[1] = tested on: human platelets in plasma; test: Platelet aggregation in platelet-rich plasma (light transmission aggregometry); format: cell-based; details: 20 min, n=5, mean±S.E.M.
Experimental: With approval from the regional ethical board Örebro-Uppsala county (Dnr 2015/543) blood was obtained from healthy volunteers, who denied to have taken any medication two weeks prior to donation, by venipuncture and drawn into 10 ml syringes preloaded by the supplier with trisodium citrate solution (Sarstedt, Nümbrecht, Germany, Order number: 02.1067.001) The blood was and centrifuged at 220 g for 20 min. The PRP thus obtained was transferred into fresh 15 ml polypropylene tubes, and the remaining blood was centrifuged at 2200 g for 20 min to separate the PPP from remaining blood cells.
Measurements were performed at 37° C. using Chrono-Log lumi-aggregometer (Model 700, Chrono-log Corporation, Havertown, Pa., USA) with stirring at 900 rev./min using a final volume of 0.3 ml platelet suspension. Aggregation is expressed as percentage light transmission compared with PPP alone (=100%).
Platelets were preincubated with vehicle or AR-C66096 as indicated for 5 min followed by the stimulation with 1 μg/ml collagen, 10 μM SFLLRN, 30 μg/ml C34, 10 μg/ml fucoidan, or 30 μg/ml dextran sulfate (DxS) (FIG. 4A).
Platelets were preincubated with vehicle or ICI 192,506 as indicated for 5 min followed by the stimulation with 1 μg/ml collagen, 10 μM SFLLRN, 30 μg/ml C34, 10 μg/ml fucoidan, or 30 μg/ml dextran sulfate (DxS) (FIG. 4B).
Platelets were preincubated with vehicle or AR-C66096 and ICI 192,506 as indicated for 5 min followed by the stimulation with 1 μg/ml collagen, 10 μM SFLLRN, 30 μg/ml C34, 10 μg/ml fucoidan, or 30 μg/ml dextran sulfate (DxS) (FIG. 4C).

[2] = tested on: human platelets in plasma; test: as above; format: cell-based; details: in the presence of both TPα and P2Y12 antagonists (dual inhibition; DAPT), FIG. 3
[3] = tested on: washed (isolated) human platelets; details: from Kauskot et al. [4]; cited from earlier work
[4] = FIG. 4A, in the presence of P2Y12 receptor antagonist AR-C66096 (5 min preincubation), same agonist concentrations
[5] = FIG. 4A, vehicle preincubation (no antagonist), 1 μg/ml collagen, 10 μM SFLLRN, 30 μg/ml C34, 10 μg/ml fucoidan, 30 μg/ml DxS
[6] = FIG. 4B, in the presence of TPα receptor antagonist ICI 192,605 (5 min preincubation), same agonist concentrations
[7] = FIG. 4B, vehicle preincubation (no antagonist), same agonist concentrations
[8] = FIG. 4C, dual inhibition with AR-C66096 and ICI 192,605 (5 min preincubation), same agonist concentrations
[9] = FIG. 4C, vehicle preincubation (no antagonist), same agonist concentrations

Molecule | extent of platelet aggregation (percentage light transmission compared with PPP) [1, 4] [%] | extent of platelet aggregation (percentage light transmission compared with PPP) [1, 5] [%] | extent of platelet aggregation (percentage light transmission compared with PPP) [1, 6] [%] | extent of platelet aggregation (percentage light transmission compared with PPP) [1, 7] [%] | extent of platelet aggregation (percentage light transmission compared with PPP) [1, 8] [%] | extent of platelet aggregation (percentage light transmission compared with PPP) [1, 9] [%] | course of platelet aggregation under dual inhibition (reversibility of first phase) [2] | aggregation of washed human platelets [3]
dextran sulfate [DxS] | 23±6 | 84±5 | 39±7 | 88±6 | 37±6 | 88±6 | irreversible and sustained | –
SFLLRN | 5±1 | 91±3 | 15±6 | 91±3 | 3±1 | 93±2 | only the first but reversible phase | –
Collagen | 23±4 | 85±2 | 21±4 | 90±3 | 11±2 | 86±2 | only the first but reversible phase | –
B1 | – | – | – | – | – | – | – | induce aggregation of washed (isolated) human platelets in a concentration-dependent fashion
